The text below walks through data of patent US6545002B1 (University of Virginia Patent Foundation, priority 1999, dated 2003).

One assay addresses T1, A3 receptors (r) (Rattus norvegicus, UniProt P28647).
T1 sequence (P28647 1-320): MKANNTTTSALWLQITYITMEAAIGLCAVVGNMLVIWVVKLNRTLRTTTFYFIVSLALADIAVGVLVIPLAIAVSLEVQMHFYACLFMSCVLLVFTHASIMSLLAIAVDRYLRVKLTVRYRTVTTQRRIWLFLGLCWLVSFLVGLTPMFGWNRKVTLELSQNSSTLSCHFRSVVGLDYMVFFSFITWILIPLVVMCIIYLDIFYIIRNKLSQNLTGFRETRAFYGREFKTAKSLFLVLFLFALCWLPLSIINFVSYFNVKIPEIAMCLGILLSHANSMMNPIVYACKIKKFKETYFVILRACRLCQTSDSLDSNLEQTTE
As to the kind of experiment: Binding at rat A3 receptors, values marked (r) in Table 1.

The target in assay [1] is T2, recombinant human A1 receptors (hA1) (Homo sapiens, UniProt P30542).
T2 sequence (P30542 1-326): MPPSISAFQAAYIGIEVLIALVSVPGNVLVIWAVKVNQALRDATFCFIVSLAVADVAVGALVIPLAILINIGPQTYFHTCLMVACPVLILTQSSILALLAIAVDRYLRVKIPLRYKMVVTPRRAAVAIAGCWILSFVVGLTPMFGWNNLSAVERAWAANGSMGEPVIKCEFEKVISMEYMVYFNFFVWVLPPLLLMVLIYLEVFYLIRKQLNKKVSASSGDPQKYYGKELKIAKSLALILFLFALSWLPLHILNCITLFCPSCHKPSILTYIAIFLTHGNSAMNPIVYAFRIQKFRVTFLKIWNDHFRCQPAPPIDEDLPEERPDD
The assay is described as follows: Radioligand binding ([3H]CPX) at recombinant human A1 receptors in HEK-293 cells.

The target of assay [2] is T3, human A3 receptors (hA3) (Homo sapiens, UniProt P0DMS8).
T3 construct: expressed in transfected cells; host or cells: HEK-293
T3 sequence (P0DMS8 1-318): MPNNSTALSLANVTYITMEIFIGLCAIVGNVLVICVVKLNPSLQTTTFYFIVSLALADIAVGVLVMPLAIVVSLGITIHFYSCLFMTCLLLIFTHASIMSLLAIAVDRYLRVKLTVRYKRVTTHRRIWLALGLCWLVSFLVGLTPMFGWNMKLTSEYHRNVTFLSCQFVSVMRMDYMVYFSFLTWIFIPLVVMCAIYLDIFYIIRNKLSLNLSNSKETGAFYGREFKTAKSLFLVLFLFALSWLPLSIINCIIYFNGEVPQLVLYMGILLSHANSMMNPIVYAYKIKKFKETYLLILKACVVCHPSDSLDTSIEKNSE
The assay is described as follows: Displacement of [125I]ABA binding at human A3 receptors expressed in HEK-293 cells. To be noted: Table 1; [125I]ABA, HEK-293; read-out: hA3 Ki or IC50. A general note: In a radioligand displacement assay an active substance lowers the binding of a labelled ligand.

In a further assay the target is T4, rat A2A receptors (rA2A) (Rattus norvegicus, UniProt P30543).
T4 construct: to A2A receptors from rat striatal membranes was performed as described; from tissue; host or cells: rat striatal membranes
T4 sequence (P30543 whole entry): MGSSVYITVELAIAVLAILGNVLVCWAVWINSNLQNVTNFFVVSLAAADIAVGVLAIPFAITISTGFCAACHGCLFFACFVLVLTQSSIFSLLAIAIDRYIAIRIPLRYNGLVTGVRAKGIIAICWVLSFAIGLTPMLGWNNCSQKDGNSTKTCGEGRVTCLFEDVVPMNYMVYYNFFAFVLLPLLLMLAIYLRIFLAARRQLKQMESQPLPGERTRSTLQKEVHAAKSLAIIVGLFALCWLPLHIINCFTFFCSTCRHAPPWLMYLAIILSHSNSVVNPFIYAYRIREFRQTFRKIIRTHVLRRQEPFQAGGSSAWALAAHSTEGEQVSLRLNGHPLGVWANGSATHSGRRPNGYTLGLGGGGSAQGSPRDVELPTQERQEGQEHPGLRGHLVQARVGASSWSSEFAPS
As to the kind of experiment: Displacement of [3H]CGS 21680 binding in rat striatal membranes.

The target of assay [3] is recombinant human A2A receptors (hA2A) (Homo sapiens, UniProt P29274). As to the kind of experiment: Radioligand binding (125I-ZM241385) at recombinant human A2A receptors in HEK-293 cells.
Chain of recombinant human A2A receptors (hA2A) (P29274 whole entry): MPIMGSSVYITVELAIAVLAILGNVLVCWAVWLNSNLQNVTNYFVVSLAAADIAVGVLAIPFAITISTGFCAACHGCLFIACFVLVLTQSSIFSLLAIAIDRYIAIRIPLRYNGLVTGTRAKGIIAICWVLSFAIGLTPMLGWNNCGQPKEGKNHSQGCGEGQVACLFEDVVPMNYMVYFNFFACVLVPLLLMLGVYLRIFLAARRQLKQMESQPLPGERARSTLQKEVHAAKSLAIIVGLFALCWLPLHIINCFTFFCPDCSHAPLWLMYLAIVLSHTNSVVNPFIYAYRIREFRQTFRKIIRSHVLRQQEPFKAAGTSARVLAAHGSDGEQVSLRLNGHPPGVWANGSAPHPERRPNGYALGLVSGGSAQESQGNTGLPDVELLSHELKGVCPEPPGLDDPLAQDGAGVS
Protocol: All non-radioactive compounds were initially dissolved in DMSO, and diluted with buffer to the final concentration, where the amount of DMSO never exceeded 2%. Incubations were terminated by rapid filtration over Whatman GF/B filters, using a Brandell cell harvester (Brandell, Gaithersburg, Md.). The tubes were rinsed three times with 3 mL buffer each.
At least six different concentrations of competitor, spanning 3 orders of magnitude adjusted appropriately for the IC50 of each compound, were used. IC50 values, calculated with the nonlinear regression method implemented in (Graph-Pad Prism, San Diego, Calif.), were converted to apparent Ki values as described.
The potency of the xanthine derivatives at human A2B receptors was evaluated using two binding assays. […] In order to determine selectivity, the xanthines were evaluated using standard binding assays at A1, A2A, and A3 receptors.
The target of a further assay is T5, rat A1 receptors (rA1) (Rattus norvegicus, UniProt P25099).
T5 construct: to A1 receptors from rat cerebral cortical membranes; from tissue; host or cells: rat cerebral cortical (brain) membranes
T5 sequence (P25099 1-326): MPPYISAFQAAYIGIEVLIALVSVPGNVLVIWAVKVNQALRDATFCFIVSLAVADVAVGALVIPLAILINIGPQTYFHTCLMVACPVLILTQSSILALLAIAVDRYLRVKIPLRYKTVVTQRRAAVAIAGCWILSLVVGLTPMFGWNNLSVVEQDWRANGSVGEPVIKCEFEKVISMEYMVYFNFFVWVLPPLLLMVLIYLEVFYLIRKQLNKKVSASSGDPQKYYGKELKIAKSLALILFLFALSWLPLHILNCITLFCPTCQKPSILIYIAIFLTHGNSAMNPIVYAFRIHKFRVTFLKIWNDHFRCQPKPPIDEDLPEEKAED
The assay is described as follows: Displacement of [3H]R-PIA binding in rat brain (cerebral cortical) membranes.

Assay [4] deals with T6, human A2B receptors (hA2B) (Homo sapiens, UniProt P29275).
T6 construct: expressed in transfected cells; host or cells: HEK-293 (HEK-A2B, G418-selected)
T6 sequence (P29275 1-332): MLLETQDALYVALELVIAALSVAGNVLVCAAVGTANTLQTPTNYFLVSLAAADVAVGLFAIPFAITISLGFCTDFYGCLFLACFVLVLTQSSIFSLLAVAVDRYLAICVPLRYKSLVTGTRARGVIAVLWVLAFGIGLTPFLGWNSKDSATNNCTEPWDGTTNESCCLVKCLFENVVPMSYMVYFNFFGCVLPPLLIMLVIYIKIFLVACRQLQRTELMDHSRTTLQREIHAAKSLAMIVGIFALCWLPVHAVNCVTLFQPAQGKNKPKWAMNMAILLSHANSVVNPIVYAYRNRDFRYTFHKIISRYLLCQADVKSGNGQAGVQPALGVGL
As to the kind of experiment: Radioligand binding ([125I]ABOPX / [3H]ZM241385) at human A2B receptors expressed in HEK-293 cells. To be noted: for hA1/hA2B / hA2A/hA2B / hA3/hA2B / rA1/hA2B: Ki ratio.

Assay [5] has as its system myocardial infarction in dogs. As to the kind of experiment: Ninety minute LAD coronary artery occlusion/reperfusion, infarct size by TTC staining. The format is in vivo, dog. To be noted: 200 nM intracoronary at 1 ml/min during occlusion and reperfusion, versus vehicle.
Assay [6] concerns the target T3, human A3 receptors (hA3). As to the kind of experiment: Displacement of [125I]AB-MECA binding at human A3 receptors expressed in HEK-293 cells (Table 4).
[7] abbreviates: read-out: hA1 Ki, values marked (h), Table 1, recombinant human A1, HEK 293.
Setting [8] is: Table 1, [3H]CGS 21680, rat striatal membranes, read-out: rA2A Ki or IC50.
[9] abbreviates: read-out: hA2A Ki, values marked (h), Table 1, recombinant human A2A, HEK 293.
Setting [10] is: Table 1, [3H]R-PIA, rat brain membranes, read-out: rA1 Ki or IC50.
Setting [11] is: Table 1, [125I]ABOPX, HEK-293, read-out: hA2B Ki or IC50.
The mark [12] stands for this setting: read-out: Ki value at human A2B receptors.
[13] abbreviates: read-out: hA2A Ki, values marked (h)^a, Table 4, vs [125I]ZM241385, HEK-293.
Setting [14] is: read-out: hA1 Ki, values marked (h)^a, Table 4, vs [3H]CPX, HEK-293.
Where [15] appears, read: Table 4, unmarked value, first of two binding assays, read-out: hA2B Ki.

Where two headings read alike, the source gives them in different places.

Turning to `CCCn1c(=O)c2[nH]c(-c3ccc(OCC(=O)O)cc3)nc2n(CCC)c1=O` [Compound 4a, 8-[4-[[[carboxy]methyl]oxy]phenyl]-1,3-dipropylxanthine], the Ki (commonly a measure of affinity in units of concentration, obtained from inhibition or displacement) at A3 receptors (r) was 75700 nM; in assay [1] (setting [7]), 175 ± 57 nM; at human A3 receptors (hA3) [2], 3910 nM.

For `C=CCn1c(=O)c2[nH]c(-c3ccc(OCC(=O)O)cc3)nc2n(CC=C)c1=O` [Compound 5], the Ki at rat A2A receptors (rA2A) (setting [8]) turned out to be 4290 nM; in [3] (setting [9]) it was 2370 nM; on A3 receptors (r), 173000 nM; on rat A1 receptors (rA1) (setting [10]) it was 756 ± 147 nM; in assay [1] (setting [7]), 1660 nM; in assay [4] (setting [11]), 141 ± 29 nM. On human A3 receptors (hA3) [2], the Ki was found to be 816 ± 91 nM. Further, in [4] (Table 1), the hA1/hA2B was found to be 12. Moreover, the hA2A/hA2B in assay [4] (Table 1) is on record as 17. The hA3/hA2B in assay [4] (Table 1) was determined as 5.8.

For the compound `CCCCn1c(=O)c2[nH]c(-c3ccc(OCC(=O)O)cc3)nc2n(CCCC)c1=O` [Compound 6], the Ki at rat A2A receptors (rA2A) (setting [8]) was determined as 874 ± 107 nM; in assay [3] (setting [9]), 2540 nM; on A3 receptors (r) it was 27500 nM; on rat A1 receptors (rA1) (setting [10]), 43.1 ± 9.9 nM; in assay [1] (setting [7]), 149 ± 83 nM; in assay [4] (setting [11]) it was 48 ± 16.9 nM. Further, at human A3 receptors (hA3) [2], the Ki came out at 90.3 ± 14.2 nM. Besides, the hA1/hA2B in assay [4] (Table 1) amounted to 3.1. The hA2A/hA2B in assay [4] (Table 1) is reported as 53. Also, in assay [4] (Table 1), the hA3/hA2B was found to be 1.9.

Take `CCCn1c(=O)c2[nH]c(-c3ccc(OCC(=O)Nc4ccc(C#N)cc4)cc3)nc2n(CCC)c1=O` [Compound 27, 8-[4-[((4-Cyano)phenylcarbamoylmethyl)oxy]phenyl]-1,3-di-(n-propyl)xanthine]: the Ki at rat A2A receptors (rA2A) (Table 2, read-out: rA2A Ki or IC50) worked out at 612 ± 287 nM; on rat A1 receptors (rA1) (Table 2, read-out: rA1 Ki or IC50), 16.8 ± 3.6 nM. In [5], the “infarct size / infarct area (IA) as %LV or %RA” value is “significantly reduced the infarct area”.

Take `CCCn1c(=O)c2[nH]c(-c3ccc(OCC(=O)NN4C(=O)[C@H]5CC=CC[C@H]5C4=O)cc3)nc2n(CCC)c1=O` [Compound 52, 8-[4-[(Carboxymethyl)oxy]phenyl]-1,3-di-(n-propyl)xanthine N,N-(cis-1,2,3,6-Tetrahydrophthaloyl)hydrazide]: the Ki was 689 ± 477 nM on rat A2A receptors (rA2A) (Table 4, read-out: rA2A Ki); 301 nM in assay [3]; 36.4 ± 6.2 nM at rat A1 receptors (rA1) (Table 4, read-out: rA1 Ki); 129 nM in [1]; 10 nM in assay [4] (setting [12]); 370 ± 190 nM at human A3 receptors (hA3) [6]. For the same compound, in [4] (Table 4), the rA1/hA2B amounted to 3.6.

Consider `CCCn1c(=O)c2[nH]c(-c3ccc(OCC(=O)NNC(=O)C4=C(C(=O)O)CCCC4)cc3)nc2n(CCC)c1=O` [Compound 55, 8-[4-[(Carboxymethyl)oxy]phenyl]-1,3-di-(n-propyl)xanthine N-[2-((1-Carboxy)-1-cyclohexene)-carbonyl]hydrazide], for which the Ki was 422 ± 136 nM at rat A2A receptors (rA2A) (Table 4, read-out: rA2A Ki); 95.6 nM in [3] (setting [13]); 47.2 ± 6.8 nM on rat A1 receptors (rA1) (Table 4, read-out: rA1 Ki); 145 nM in assay [1] (setting [14]); 17.3 ± 6.3 nM in assay [4] (setting [15]); 17 nM in assay [4] (setting [12]). Moreover, the affinity on human A3 receptors (hA3) [6], expressed as Ki, was 438 ± 109 nM. Also, the rA1/hA2B in assay [4] (Table 4) was 2.7.

Turning to `CCCn1c(=O)c2[nH]c(-c3ccc(OCC(=O)NN4C(=O)CC[C@H](NC(=O)C(F)(F)F)C4=O)cc3)nc2n(CCC)c1=O` [Compound 61], the inhibition constant Ki was 440 ± 106 nM at rat A2A receptors (rA2A) (Table 4, read-out: rA2A Ki); 178 nM in assay [3]; 53.5 ± 6.5 nM on rat A1 receptors (rA1) (Table 4, read-out: rA1 Ki); 149 nM in assay [1]; 13 nM in [4] (setting [12]); 726 ± 245 nM at human A3 receptors (hA3) [6]. Further, the rA1/hA2B in assay [4] (Table 4) amounted to 4.1.

Take `CCCn1c(=O)c2[nH]c(-c3ccc(OCC(=O)NNC(=O)CNC(=O)CNC(=O)OCc4ccccc4)cc3)nc2n(CCC)c1=O` [Compound 64, 8-[4-[(Carboxymethyl)oxy]phenyl]-1,3-di-(n-propyl)xanthine N-(N-Benzyloxycarbonyl-glycylglycinyl)hydrazide]: the Ki is 609 ± 95 nM on rat A2A receptors (rA2A) (Table 4, read-out: rA2A Ki); 830 ± 84 nM in assay [3] (setting [13]); 36 ± 6.6 nM at rat A1 receptors (rA1) (Table 4, read-out: rA1 Ki); 200 ± 22 nM in assay [1] (setting [14]); 10.8 ± 5 nM in assay [4] (setting [15]); 11 nM in assay [4] (setting [12]). The compound further returned a Ki at human A3 receptors (hA3) [6] of 323 ± 47 nM. Moreover, the rA1/hA2B in assay [4] (Table 4) came out at 3.3.
